Assays:
Experiment in all cases: relative viability (nuclei count vs DMSO), 5 days (fraction); higher = more cells survive
PC-14 = tested on: PC-14
Outline: (§1)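 For relative viability, nuclei counts in treated wells were divided by those in vehicle wells. Lung cancer cell lines had been pin-tool dosed in 1536-well plates the day after seeding and cultured for 5 days, then fixed and stained in one step (final 0.05% Triton X-100, 1% formaldehyde, 1 ug/ml Hoechst) and imaged at 4×. Doses were one drug alone or a fixed anchor-drug dose plus five library-drug doses (not always all listed) in √10 steps, and values are duplicate-plate medians.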

NCI-H1792 = tested on: NCI-H1792
Outline: as §1

NCI-H650 = tested on: NCI-H650
Outline: as §1

LCLC-103H = tested on: LCLC-103H
Outline: as §1

NCI-H460 = tested on: NCI-H460
Outline: as §1

NCI-H596 = tested on: NCI-H596
Outline: as §1

NCI-H1651 = tested on: NCI-H1651
Outline: as §1

LXF-289 = tested on: LXF-289
Outline: as §1

NCI-H1355 = tested on: NCI-H1355
Outline: as §1

SK-MES-1 = tested on: SK-MES-1
Outline: as §1

RERF-LC-KJ = tested on: RERF-LC-KJ
Outline: as §1

NCI-H1755 = tested on: NCI-H1755
Outline: as §1

NCI-H441 = tested on: NCI-H441
Outline: as §1

NCI-H727 = tested on: NCI-H727
Outline: as §1

NCI-H3122 = tested on: NCI-H3122
Outline: as §1

NCI-H1915 = tested on: NCI-H1915
Outline: as §1

NCI-H661 = tested on: NCI-H661
Outline: as §1

NCI-H520 = tested on: NCI-H520
Outline: as §1

NCI-H1563 = tested on: NCI-H1563
Outline: as §1

NCI-H322M = tested on: NCI-H322M
Outline: as §1

NCI-H2347 = tested on: NCI-H2347
Outline: as §1

Molecule `NC(=O)Nc1cc(-c2cccc(F)c2)sc1C(=O)N[C@H]1CCCNC1` [AZD7762] + C[C@]1(O)C[C@@H](c2nc(-c3ccc4ccc(-c5ccccc5)nc4c3)c3c(N)nccn32)C1 [Linsitinib] (partner 1 µM) has a relative viability (PC-14; first compound 0.01 µM) of 0.975, a relative viability (PC-14; first compound 0.03162 µM) of 0.994 and a relative viability (PC-14; first compound 0.1 µM) of 0.995. It also gave a relative viability (PC-14; first compound 0.3162 µM) of 0.891, a relative viability (PC-14; first compound 1 µM) of 0.425 and a relative viability (NCI-H1792; first compound 0.01 µM) of 0.604. It also gave a relative viability (NCI-H1792; first compound 0.03162 µM) of 0.588, a relative viability (NCI-H1792; first compound 0.1 µM) of 0.624 and a relative viability (NCI-H1792; first compound 0.3162 µM) of 0.599. For the same molecule, the relative viability (NCI-H1792; first compound 1 µM) was 0.707, the relative viability (NCI-H650; first compound 0.01 µM) was 1.01 and the relative viability (NCI-H650; first compound 0.03162 µM) was 0.984. The relative viability (NCI-H650; first compound 0.1 µM) was 0.842, the relative viability (NCI-H650; first compound 0.3162 µM) was 0.843 and the relative viability (NCI-H650; first compound 1 µM) was 0.811. The relative viability (LCLC-103H; first compound 0.01 µM) was 1.1, the relative viability (LCLC-103H; first compound 0.03162 µM) was 1.09 and the relative viability (LCLC-103H; first compound 0.1 µM) was 0.997. For the same molecule, the relative viability (LCLC-103H; first compound 0.3162 µM) was 1.11, the relative viability (LCLC-103H; first compound 1 µM) was 0.738 and the relative viability (NCI-H460; first compound 0.01 µM) was 0.975. The relative viability (NCI-H460; first compound 0.03162 µM) was 0.727, the relative viability (NCI-H460; first compound 0.1 µM) was 0.719 and the relative viability (NCI-H460; first compound 0.3162 µM) was 0.135. For the same molecule, the relative viability (NCI-H460; first compound 1 µM) was 0.0126, the relative viability (NCI-H596; first compound 0.01 µM) was 1.04 and the relative viability (NCI-H596; first compound 0.03162 µM) was 1.04. It also gave a relative viability (NCI-H596; first compound 0.1 µM) of 1.03, a relative viability (NCI-H596; first compound 0.3162 µM) of 1.1 and a relative viability (NCI-H596; first compound 1 µM) of 0.923. The relative viability (NCI-H1651; first compound 0.01 µM) was 1.03, the relative viability (NCI-H1651; first compound 0.03162 µM) was 0.904 and the relative viability (NCI-H1651; first compound 0.1 µM) was 0.902. For the same molecule, the relative viability (NCI-H1651; first compound 0.3162 µM) was 0.702, the relative viability (NCI-H1651; first compound 1 µM) was 0.358 and the relative viability (LXF-289; first compound 0.01 µM) was 0.957. It also gave a relative viability (LXF-289; first compound 0.03162 µM) of 0.938, a relative viability (LXF-289; first compound 0.1 µM) of 1.01 and a relative viability (LXF-289; first compound 0.3162 µM) of 1.03. For the same molecule, the relative viability (LXF-289; first compound 1 µM) was 1.06, the relative viability (NCI-H1355; first compound 0.01 µM) was 0.805 and the relative viability (NCI-H1355; first compound 0.03162 µM) was 0.811. For the same molecule, the relative viability (NCI-H1355; first compound 0.1 µM) was 0.766, the relative viability (NCI-H1355; first compound 0.3162 µM) was 0.859 and the relative viability (NCI-H1355; first compound 1 µM) was 0.762. It also gave a relative viability (SK-MES-1; first compound 0.01 µM) of 1.06, a relative viability (SK-MES-1; first compound 0.03162 µM) of 1.12 and a relative viability (SK-MES-1; first compound 0.1 µM) of 1.11. It also gave a relative viability (SK-MES-1; first compound 0.3162 µM) of 1.04, a relative viability (SK-MES-1; first compound 1 µM) of 0.414 and a relative viability (RERF-LC-KJ; first compound 0.01 µM) of 0.923. The relative viability (RERF-LC-KJ; first compound 0.03162 µM) was 0.879, the relative viability (RERF-LC-KJ; first compound 0.1 µM) was 0.849 and the relative viability (RERF-LC-KJ; first compound 0.3162 µM) was 0.908. The relative viability (RERF-LC-KJ; first compound 1 µM) was 0.842, the relative viability (NCI-H1755; first compound 0.01 µM) was 1.03 and the relative viability (NCI-H1755; first compound 0.03162 µM) was 1.06. The relative viability (NCI-H1755; first compound 0.1 µM) was 1.06, the relative viability (NCI-H1755; first compound 0.3162 µM) was 1.03 and the relative viability (NCI-H1755; first compound 1 µM) was 0.646. It also gave a relative viability (NCI-H441; first compound 0.01 µM) of 0.656, a relative viability (NCI-H441; first compound 0.03162 µM) of 0.744 and a relative viability (NCI-H441; first compound 0.1 µM) of 0.657. It also gave a relative viability (NCI-H441; first compound 0.3162 µM) of 0.823, a relative viability (NCI-H441; first compound 1 µM) of 0.67 and a relative viability (NCI-H727; first compound 0.01 µM) of 0.282. It also gave a relative viability (NCI-H727; first compound 0.03162 µM) of 0.333, a relative viability (NCI-H727; first compound 0.1 µM) of 0.311 and a relative viability (NCI-H727; first compound 0.3162 µM) of 0.219. It also gave a relative viability (NCI-H727; first compound 1 µM) of 0.118, a relative viability (NCI-H3122; first compound 0.01 µM) of 1.02 and a relative viability (NCI-H3122; first compound 0.03162 µM) of 0.986. It also gave a relative viability (NCI-H3122; first compound 0.1 µM) of 1.05, a relative viability (NCI-H3122; first compound 0.3162 µM) of 0.868 and a relative viability (NCI-H3122; first compound 1 µM) of 1.12. The relative viability (NCI-H1915; first compound 0.01 µM) was 1.09, the relative viability (NCI-H1915; first compound 0.03162 µM) was 1.1 and the relative viability (NCI-H1915; first compound 0.1 µM) was 1.19. It also gave a relative viability (NCI-H1915; first compound 0.3162 µM) of 1.2, a relative viability (NCI-H1915; first compound 1 µM) of 1.06 and a relative viability (NCI-H661; first compound 0.01 µM) of 0.681. It also gave a relative viability (NCI-H661; first compound 0.03162 µM) of 0.546, a relative viability (NCI-H661; first compound 0.1 µM) of 0.444 and a relative viability (NCI-H661; first compound 0.3162 µM) of 0.501. The relative viability (NCI-H661; first compound 1 µM) was 0.293, the relative viability (NCI-H520; first compound 0.01 µM) was 1.16 and the relative viability (NCI-H520; first compound 0.03162 µM) was 0.893. The relative viability (NCI-H520; first compound 0.1 µM) was 0.848, the relative viability (NCI-H520; first compound 0.3162 µM) was 0.551 and the relative viability (NCI-H520; first compound 1 µM) was 0.389. It also gave a relative viability (NCI-H1563; first compound 0.01 µM) of 1.25, a relative viability (NCI-H1563; first compound 0.03162 µM) of 1.25 and a relative viability (NCI-H1563; first compound 0.1 µM) of 1.46. The relative viability (NCI-H1563; first compound 0.3162 µM) was 1.12, the relative viability (NCI-H1563; first compound 1 µM) was 0.953 and the relative viability (NCI-H322M; first compound 0.01 µM) was 1.02. For the same molecule, the relative viability (NCI-H322M; first compound 0.03162 µM) was 1.03, the relative viability (NCI-H322M; first compound 0.1 µM) was 0.92 and the relative viability (NCI-H322M; first compound 0.3162 µM) was 0.987. It also gave a relative viability (NCI-H322M; first compound 1 µM) of 0.84, a relative viability (NCI-H2347; first compound 0.01 µM) of 1.09 and a relative viability (NCI-H2347; first compound 0.03162 µM) of 1.01. It also gave a relative viability (NCI-H2347; first compound 0.1 µM) of 1.15, a relative viability (NCI-H2347; first compound 0.3162 µM) of 1.1 and a relative viability (NCI-H2347; first compound 1 µM) of 1.04.

From the supplement of paper PMC10307832
